The record followed here is patent publication US20250236611A1, “PYRAZOLE COMPOUNDS AND USES THEREOF” (ALCON INC., priority 2021, published 2025).

What all share (assay type): biochemical
Common to all, as to conditions: 10 nM JAK enzyme, 800 nM Abl peptide, room temperature 75 min

The target in assay [1] is JAK1 (Homo sapiens, UniProt P23458). Put plainly: JAK assay (KINASE-GLO luminescent kinase assay), JAK1. In short, it runs like this: (§1)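 The 2× mix gave 10 nM kinase, 800 nM Abl peptide and 2 µM DTT, and ATP was added as a 4× stock (2 µM), in HEPES pH 7.5 buffer. Compounds ran as an 11-point series, 100 µM–10 pM final in 2.5% DMSO, for 75 min at RT. Remaining ATP was read by luminescence against DMSO control, and 4-parameter IC50s were converted to Ki by Cheng-Prusoff.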
Chain of JAK1 (P23458 whole entry): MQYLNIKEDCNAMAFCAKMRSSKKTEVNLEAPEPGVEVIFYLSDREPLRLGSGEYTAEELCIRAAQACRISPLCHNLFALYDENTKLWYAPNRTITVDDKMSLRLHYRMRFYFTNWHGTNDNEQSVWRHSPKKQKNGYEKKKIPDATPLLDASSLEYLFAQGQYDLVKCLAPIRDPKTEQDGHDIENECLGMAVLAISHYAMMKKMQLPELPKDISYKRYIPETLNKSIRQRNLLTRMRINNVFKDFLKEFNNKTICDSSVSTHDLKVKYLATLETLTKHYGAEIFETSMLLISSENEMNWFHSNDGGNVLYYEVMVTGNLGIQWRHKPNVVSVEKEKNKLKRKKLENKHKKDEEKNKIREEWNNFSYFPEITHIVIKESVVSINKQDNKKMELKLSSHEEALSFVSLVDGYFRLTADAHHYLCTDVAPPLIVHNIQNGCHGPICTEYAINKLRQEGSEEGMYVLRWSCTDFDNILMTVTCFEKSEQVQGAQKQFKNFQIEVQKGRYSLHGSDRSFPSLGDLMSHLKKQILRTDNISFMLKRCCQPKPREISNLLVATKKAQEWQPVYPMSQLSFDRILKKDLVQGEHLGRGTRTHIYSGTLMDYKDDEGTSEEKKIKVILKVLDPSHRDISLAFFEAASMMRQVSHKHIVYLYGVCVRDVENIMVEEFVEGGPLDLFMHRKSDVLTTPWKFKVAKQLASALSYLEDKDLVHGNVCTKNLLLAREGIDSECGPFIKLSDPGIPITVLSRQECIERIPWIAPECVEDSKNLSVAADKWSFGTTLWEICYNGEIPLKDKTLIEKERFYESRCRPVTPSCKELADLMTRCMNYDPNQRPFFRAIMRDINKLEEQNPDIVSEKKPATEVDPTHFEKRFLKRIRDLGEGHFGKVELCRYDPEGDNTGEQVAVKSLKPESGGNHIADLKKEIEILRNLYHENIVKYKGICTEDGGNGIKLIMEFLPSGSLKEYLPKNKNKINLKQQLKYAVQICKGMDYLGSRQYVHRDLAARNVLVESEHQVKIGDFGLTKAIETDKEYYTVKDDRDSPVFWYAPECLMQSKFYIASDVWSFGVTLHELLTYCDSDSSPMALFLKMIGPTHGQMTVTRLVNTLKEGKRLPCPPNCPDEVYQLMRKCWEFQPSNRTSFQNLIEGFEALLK

Assay [2] concerns the target JAK2 (Homo sapiens, UniProt O60674). In words: JAK assay (KINASE-GLO luminescent kinase assay), JAK2. In short, it runs like this:
as §1
For orientation: Kinase-Glo measures the ATP left after a reaction by luminescence.

The target of assay [3] is T1, JAK3 (Homo sapiens, UniProt P52333).
T1 sequence (P52333 1-1124): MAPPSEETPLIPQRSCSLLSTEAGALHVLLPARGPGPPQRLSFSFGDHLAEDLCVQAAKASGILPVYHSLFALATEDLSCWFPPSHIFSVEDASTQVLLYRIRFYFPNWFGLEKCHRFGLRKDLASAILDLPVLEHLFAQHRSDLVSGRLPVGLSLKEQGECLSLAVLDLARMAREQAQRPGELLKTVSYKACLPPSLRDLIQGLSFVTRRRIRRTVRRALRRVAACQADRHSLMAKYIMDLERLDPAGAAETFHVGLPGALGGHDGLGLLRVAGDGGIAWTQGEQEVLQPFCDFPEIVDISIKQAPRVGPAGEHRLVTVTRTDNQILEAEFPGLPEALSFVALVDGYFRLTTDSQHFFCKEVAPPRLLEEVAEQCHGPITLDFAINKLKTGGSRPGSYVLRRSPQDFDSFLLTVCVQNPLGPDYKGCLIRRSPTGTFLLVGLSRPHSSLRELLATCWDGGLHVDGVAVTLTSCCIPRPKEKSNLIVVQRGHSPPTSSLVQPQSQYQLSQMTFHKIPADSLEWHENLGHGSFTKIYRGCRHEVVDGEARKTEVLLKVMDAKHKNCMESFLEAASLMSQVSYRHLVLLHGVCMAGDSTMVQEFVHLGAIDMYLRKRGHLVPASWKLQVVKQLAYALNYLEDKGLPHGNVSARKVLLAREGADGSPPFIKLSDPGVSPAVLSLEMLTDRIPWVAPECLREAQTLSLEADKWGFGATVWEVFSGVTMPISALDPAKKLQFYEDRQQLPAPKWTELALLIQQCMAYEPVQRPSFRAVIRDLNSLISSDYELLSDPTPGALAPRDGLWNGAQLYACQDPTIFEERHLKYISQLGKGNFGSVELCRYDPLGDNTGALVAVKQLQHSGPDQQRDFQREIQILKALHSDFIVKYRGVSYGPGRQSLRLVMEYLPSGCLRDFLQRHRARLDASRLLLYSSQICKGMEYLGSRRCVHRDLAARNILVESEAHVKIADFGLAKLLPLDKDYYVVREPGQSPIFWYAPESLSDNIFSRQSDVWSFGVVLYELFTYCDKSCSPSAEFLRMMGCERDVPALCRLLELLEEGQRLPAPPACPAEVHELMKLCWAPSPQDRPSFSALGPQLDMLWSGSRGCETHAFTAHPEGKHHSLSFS
In words: JAK assay (KINASE-GLO luminescent kinase assay), JAK3. In short, it runs like this:
as §1

Assay [4] deals with TYK2 (Homo sapiens, UniProt P29597). Put plainly: JAK assay (KINASE-GLO luminescent kinase assay), TYK2.
Chain of TYK2 (P29597 whole entry): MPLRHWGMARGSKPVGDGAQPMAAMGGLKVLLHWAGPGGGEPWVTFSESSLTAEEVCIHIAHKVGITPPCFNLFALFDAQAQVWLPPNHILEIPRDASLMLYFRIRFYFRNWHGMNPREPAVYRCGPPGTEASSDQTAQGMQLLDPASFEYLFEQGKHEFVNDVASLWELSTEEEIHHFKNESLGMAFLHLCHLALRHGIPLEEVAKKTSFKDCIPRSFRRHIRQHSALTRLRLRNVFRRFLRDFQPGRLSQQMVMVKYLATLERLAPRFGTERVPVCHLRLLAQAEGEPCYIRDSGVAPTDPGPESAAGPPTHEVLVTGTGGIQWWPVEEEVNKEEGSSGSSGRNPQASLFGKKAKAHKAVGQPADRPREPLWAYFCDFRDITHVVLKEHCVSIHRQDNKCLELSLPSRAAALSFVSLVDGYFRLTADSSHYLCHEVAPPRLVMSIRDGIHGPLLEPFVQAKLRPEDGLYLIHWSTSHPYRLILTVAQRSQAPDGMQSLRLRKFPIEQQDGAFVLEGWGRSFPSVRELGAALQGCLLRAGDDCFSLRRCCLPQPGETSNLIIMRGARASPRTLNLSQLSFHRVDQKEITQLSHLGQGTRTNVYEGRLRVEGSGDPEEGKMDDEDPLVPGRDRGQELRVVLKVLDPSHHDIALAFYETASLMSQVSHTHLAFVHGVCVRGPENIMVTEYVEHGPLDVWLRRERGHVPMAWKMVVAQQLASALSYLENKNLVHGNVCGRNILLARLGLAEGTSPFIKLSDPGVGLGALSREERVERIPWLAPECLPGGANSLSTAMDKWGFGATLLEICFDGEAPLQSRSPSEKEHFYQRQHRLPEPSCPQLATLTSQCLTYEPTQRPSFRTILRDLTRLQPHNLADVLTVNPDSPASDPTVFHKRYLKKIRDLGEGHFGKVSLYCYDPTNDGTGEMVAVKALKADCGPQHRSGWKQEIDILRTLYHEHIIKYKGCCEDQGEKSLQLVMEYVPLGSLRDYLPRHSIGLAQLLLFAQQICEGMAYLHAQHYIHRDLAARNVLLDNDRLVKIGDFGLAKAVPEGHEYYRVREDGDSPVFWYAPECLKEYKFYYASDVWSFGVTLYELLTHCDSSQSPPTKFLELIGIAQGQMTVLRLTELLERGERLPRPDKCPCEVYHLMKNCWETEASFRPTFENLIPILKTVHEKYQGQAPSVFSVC

Molecules are shown by their SMILES.

Chain of JAK2 (O60674 whole entry): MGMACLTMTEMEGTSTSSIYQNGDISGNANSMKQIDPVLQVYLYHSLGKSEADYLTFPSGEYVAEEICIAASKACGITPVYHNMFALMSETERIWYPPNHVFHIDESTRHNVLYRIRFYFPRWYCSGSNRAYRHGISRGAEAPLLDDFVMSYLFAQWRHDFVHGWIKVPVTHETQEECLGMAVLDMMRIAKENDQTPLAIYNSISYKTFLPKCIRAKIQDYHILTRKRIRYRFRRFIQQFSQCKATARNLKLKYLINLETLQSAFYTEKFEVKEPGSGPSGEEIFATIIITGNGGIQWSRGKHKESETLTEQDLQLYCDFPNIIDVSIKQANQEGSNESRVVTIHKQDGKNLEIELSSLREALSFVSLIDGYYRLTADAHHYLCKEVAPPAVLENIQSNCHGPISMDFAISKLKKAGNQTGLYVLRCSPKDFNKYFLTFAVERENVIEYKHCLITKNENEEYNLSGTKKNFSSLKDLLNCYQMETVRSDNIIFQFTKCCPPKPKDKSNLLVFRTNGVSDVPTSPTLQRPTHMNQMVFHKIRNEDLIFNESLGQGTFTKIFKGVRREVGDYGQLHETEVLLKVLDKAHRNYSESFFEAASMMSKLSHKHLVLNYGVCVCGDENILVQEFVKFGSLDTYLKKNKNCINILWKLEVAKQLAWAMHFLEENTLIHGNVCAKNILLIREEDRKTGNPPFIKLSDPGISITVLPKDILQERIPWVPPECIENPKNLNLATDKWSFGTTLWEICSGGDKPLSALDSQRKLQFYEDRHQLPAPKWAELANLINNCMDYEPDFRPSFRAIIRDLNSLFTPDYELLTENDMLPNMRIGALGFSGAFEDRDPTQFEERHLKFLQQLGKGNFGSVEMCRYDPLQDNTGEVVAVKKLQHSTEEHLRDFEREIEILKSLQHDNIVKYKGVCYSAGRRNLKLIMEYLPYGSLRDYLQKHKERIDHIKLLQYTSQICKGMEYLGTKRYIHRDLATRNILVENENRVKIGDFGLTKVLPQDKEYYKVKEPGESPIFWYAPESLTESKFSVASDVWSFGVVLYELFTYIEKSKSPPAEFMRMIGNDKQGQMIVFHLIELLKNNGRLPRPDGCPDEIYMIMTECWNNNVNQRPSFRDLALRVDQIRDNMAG

One may read the IC50 as the concentration needed to halve the response being measured. Read a high IC50 as lower potency. Consider `COC(=O)c1ccc(Nc2ncc(Cl)c(-c3cnn(CC4(C#N)CC4)c3)n2)cn1` [COC(═O)C1═NC═C(NC2═NC(═C], for which the half-inhibitory concentration (IC50) in assay [1] was below 1000 nM; in assay [2], below 10 nM; in assay [3] it was below 100 nM; in assay [4], below 100 nM.
As for `N#CCCn1cc(-c2nc(Nc3ccc(CCOP(=O)(O)O)cc3)ncc2Cl)cn1` [O[P](O)(═O)OCCC1═CC═C(NC2═NC(═C], the half-maximal inhibitory concentration (IC50) in assay [1] was below 100 nM; in assay [2], below 10 nM; in assay [3], below 100 nM; in assay [4] it was below 10 nM.
Regarding `Cn1ccc(Nc2ncc(Cl)c(-c3cnn(CC4(C#N)COC4)c3)n2)cc1=O` [CN1/C═C\C(═C/C1═O)NC2═NC(═C], the IC50 is below 1000 nM in assay [1], below 10 nM in assay [2], below 1000 nM in assay [3] and below 1000 nM in assay [4].
Take `Cc1cnc(Nc2ccc(C(=O)NCCN(C)C)cc2)nc1-c1cnn(CC2(CF)CC2)c1` [CN(C)CCNC(═O)C1═CC═C(NC2═NC]: the 50% inhibitory concentration (IC50) is below 100 nM in assay [1], below 10 nM in assay [2], below 100 nM in assay [3] and below 10 nM in assay [4].
Regarding `Cc1cnc(Nc2ccc(CNC(=O)CCN(C)C)cc2)nc1-c1cnn(CC2(CF)CC2)c1` [CN(C)CCC(═O)NCC1═CC═C(NC2═NC(═C], the IC50 was below 100 nM in assay [1], below 10 nM in assay [2], below 100 nM in assay [3] and below 100 nM in assay [4].
On to `Cc1cnc(Nc2ccc3c(c2)CN(C)C3)nc1-c1cnn(CC2(CF)CC2)c1` [CN1CC2═CC═C(NC3═NC(═C], for which the 50% inhibitory concentration (IC50) in assay [1], in assay [2], in assay [3] and in assay [4] was below 10 nM in each case.
With `Cc1cnc(Nc2ccc(S(C)(=O)=O)cc2)nc1-c1cnn(CC2(Cl)CC2)c1` [CC1═C(N═C(NC2═CC═C(C═C2)[S]], the IC50 in assay [1] is below 100 nM; in assay [2] it was below 10 nM; in assay [3], below 10 nM; in assay [4] it was below 10 nM.
For the compound `Cc1cncc(Nc2ncc(C)c(-c3cnn(CC4(CF)CCC4)c3)n2)c1` [CC1═CN═CC(═C1)NC2═NC(═C], the IC50 is below 100 nM in assay [1], below 10 nM in assay [2], below 100 nM in assay [3] and below 100 nM in assay [4].
Regarding `Cc1cnc(NCCN2CCCCC2)nc1-c1cnn(CCC#N)c1` [CC1═C(N═C(NCCN2CCCCC2)N═C1)C3═C[N]], the half-maximal inhibitory concentration (IC50) in assay [1], in assay [2], in assay [3] and in assay [4] was above 50000 nM each time.
As to `COCCOCc1cc(Nc2ncc(C)c(-c3cnn(CC4(CF)CC4)c3)n2)sn1` [COCCOCC1═NSC(═C1)NC2═NC(═C], the IC50 in assay [1], in assay [2], in assay [3] and in assay [4] was below 1000 nM in each case.
For the compound `Cc1cnc(Nc2ccc(N3CCN(C)CC3)cc2)nc1-c1cnn(CC2(F)CC2)c1` [CN1CCN(CC1)C2═CC═C(NC3═NC(═C(C], the half-maximal inhibitory concentration (IC50) in assay [1] was below 100 nM; in assay [2], below 10 nM; in assay [3], below 10 nM; in assay [4], below 10 nM.
Consider `Cc1cnc(Nc2cnc(N3CCOCC3)nc2)nc1-c1cnn(CC2(CF)CC2)c1` [CC1═C(N═C(NC2═CN═C], for which the IC50 in assay [1] was below 1000 nM; in assay [2], below 10 nM; in assay [3], below 100 nM; in assay [4] it was below 1000 nM.
With `COCc1cc(Nc2ncc(C)c(-c3cnn(CC4(CF)CC4)c3)n2)sn1` [COCC1═NSC(═C1)NC2═NC(═C], the half-maximal inhibitory concentration (IC50) in assay [1] was below 1000 nM; in assay [2], below 100 nM; in assay [3], below 1000 nM; in assay [4] it was below 1000 nM.
For `N#CCCn1cc(-c2nc(Nc3cccc(C(=O)O)c3)ncc2Cl)cn1` [OC(═O)C1═CC═CC(═C1)NC2═NC], the half-maximal inhibitory concentration (IC50) is below 1000 nM in assay [1], below 10 nM in assay [2], below 1000 nM in assay [3] and below 1000 nM in assay [4].
As to `CC(=O)OCCc1ccc(Nc2ncc(Cl)c(-c3cnn(CCC#N)c3)n2)cc1` [CC(═O)OCCC1═CC═C(NC2═NC(═C], the IC50 in assay [1] is below 100 nM; in assay [2], below 10 nM; in assay [3], below 100 nM; in assay [4], below 10 nM.
For the compound `Cc1cnc(Nc2cccc3c2CNC3=O)nc1-c1cnn(CC2(Cl)CC2)c1` [CC1═C(N═C(NC2═C3CNC], the IC50 is below 100000 nM in assay [1], below 100 nM in assay [2], below 1000 nM in assay [3] and below 100000 nM in assay [4].
In the case of `Cc1cnc(Nc2cccc(C(=O)N(C)C)c2)nc1-c1cnn(CC2(CF)CC2)c1` [CN(C)C(═O)C1═CC(═CC═C1)NC2═NC], the IC50 was below 100 nM in assay [1], below 10 nM in assay [2], below 100 nM in assay [3] and below 100 nM in assay [4].
On to `CCS(=O)(=O)N1CC(CO)(Cn2cc(-c3nc(Nc4cc(C)ns4)ncc3Cl)cn2)C1` [CC[S](═O)(═O)N1CC(CO)], for which the IC50 in assay [1] was below 1000 nM; in assay [2], below 1000 nM; in assay [3], below 100000 nM; in assay [4] it was below 100000 nM.
Consider `CCc1cnc(Nc2cc(C)ns2)nc1-c1cnn(CC2(Cl)CC2)c1` [CCC1═C(N═C(NC2═CC], for which the IC50 in assay [1] was below 100 nM; in assay [2], below 10 nM; in assay [3] it was below 10 nM; in assay [4], below 100 nM.
As to `N#CCCn1cc(-c2nc(Nc3cccc(CN4CC(F)C4)c3)ncc2Cl)cn1` [FC1CN(C1)CC2═CC═CC(═C2)NC3═NC(═C], the IC50 was below 100 nM in assay [1], below 10 nM in assay [2], below 10 nM in assay [3] and below 10 nM in assay [4].
For `CCS(=O)(=O)N1CC(CF)(Cn2cc(-c3nc(Nc4cc(C)ns4)ncc3Cl)cn2)C1` [CC[S](═O)(═O)N1CC(CF)(C[N]2C═C], the IC50 in assay [1] is below 100 nM; in assay [2], below 10 nM; in assay [3], below 100 nM; in assay [4], below 100 nM.
Take `Cc1cc(Nc2ncc(Cl)c(-c3cnn(CC4(N(C)C(=O)OC(C)(C)C)CC4)c3)n2)sn1` [CN(C(═O)OC(C)(C)C)C1(CC1)C[N]2C═C]: the half-inhibitory concentration (IC50) in assay [1] is below 1000 nM; in assay [2], below 100 nM; in assay [3] it was below 100 nM; in assay [4], below 1000 nM.
Regarding `CC(C)(C)OC(=O)N1CC(CF)(Cn2cc(-c3nc(Nc4ccc(C(N)=O)cc4)ncc3Cl)cn2)C1` [CC(C)(C)OC(═O)N1CC(CF)(C1)C[N]2C═C], the IC50 in assay [1], in assay [2], in assay [3] and in assay [4] was below 100 nM in each case.
Take `CNC(=O)c1ccc(Nc2ncc(C)c(-c3cnn(CC4(CF)CC4)c3)n2)cc1` [CNC(═O)C1═CC═C(NC2═NC(═C]: the IC50 in assay [1], in assay [2], in assay [3] and in assay [4] was below 10 nM each time.
Turning to `N#CCCn1cc(-c2nc(Nc3cc(C(F)(F)F)no3)ncc2Cl)cn1` [FC(F)(F)C1═NOC(═C1)NC2═NC(═C], the IC50 in assay [1] is above 50000 nM; in assay [2] it was below 1000 nM; in assay [3], above 50000 nM; in assay [4], above 50000 nM.
For `Cc1cnc(Nc2ccc(CN3CCN(C)CC3)cc2)nc1-c1cnn(CC2(CF)CC2)c1` [CN1CCN(CC1)CC2═CC═C(NC3═NC], the IC50 in assay [1] was below 1000 nM; in assay [2], below 10 nM; in assay [3] it was below 100 nM; in assay [4], below 100 nM.
Regarding `Cc1cnc(Nc2ccc(S(C)(=O)=O)c(F)c2)nc1-c1cnn(CC2(Cl)CC2)c1` [CC1═C(N═C(NC2═CC═C(C(═C2)F)[S]], the half-inhibitory concentration (IC50) in assay [1] is below 100 nM; in assay [2] it was below 10 nM; in assay [3], below 100 nM; in assay [4], below 10 nM.
With `COc1cc(Nc2ncc(C)c(-c3cnn(CC4(CF)CC4)c3)n2)sn1` [COC1═NSC(═C1)NC2═NC(═C], the IC50 in assay [1] is below 100 nM; in assay [2] it was below 10 nM; in assay [3], below 100 nM; in assay [4], below 10 nM.
`CC(C)(C)OC(=O)NCc1cccc(Nc2ncc(Cl)c(-c3cnn(CC4(CF)CC4)c3)n2)c1` [CC(C)(C)OC(═O)NCC1═CC═CC]: the IC50 in assay [1] was 157 nM; in assay [2], below 100 nM; in assay [3], below 10 nM; in assay [4] it was below 100 nM.
